From PubChem BioAssay AID720570 (Broad Institute, 2013)
Active and inactive are the calls of the source.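 How the source made its calls: active means cell-killing curve crosses a set limit at a concentration no more than twice the top valid dose; inconclusive means flat curve with a 30 to 70% loss, or a poor fit; inactive means signal rising instead of falling, and the rest.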

Assay: TC71 Ewing sarcoma cell killing, confirmation, luminescence, cherry-picked samples, retest (AID 720570)
Conditions: TC71 Ewing sarcoma viability, CellTiter-Glo ATP, 72 h; at 23.5 µM (top of the series)

Q: With `COC(=O)C[C@@H]1CC[C@@H]2[C@H](COc3ccc(NC(=O)c4cccc(Cl)c4)cc3C(=O)N2C)O1` as the compound, how does the activity change, negative = cytotoxicity read?
A: Its activity change, negative = cytotoxicity is 2.41% (inactive).

Same assay, conditions: TC71 Ewing sarcoma viability, CellTiter-Glo ATP, 72 h; at 26 µM (top of the series)

Q: Which activity change, negative = cytotoxicity does the source give for `O=C1Nc2ccccc2C1=Nc1ccccc1-c1ccccc1` here?
A: Its activity change, negative = cytotoxicity is 11.4% (inactive).

Q: Which activity change, negative = cytotoxicity does the source give for `Cc1noc(C)c1NC(=O)Nc1ccc2c(c1)CC(=O)N([C@H](C)CO)C[C@@H](C)[C@@H](CN(C)Cc1ccc(Cl)c(Cl)c1)O2` here?
A: Its activity change, negative = cytotoxicity is 0.509% (inactive).

Q: Which activity change, negative = cytotoxicity does the source give for `COC(=O)C[C@@H]1CC[C@H]2[C@H](COc3ccc(NC(=O)Nc4cc(C)cc(C)c4)cc3C(=O)N2C)O1` here?
A: Its activity change, negative = cytotoxicity is 5.7% (inactive).

Q: For `Cc1cc(C(=O)CN2C(=O)c3ccccc3S2(=O)=O)c(C)n1C(C)C`, which activity change, negative = cytotoxicity is on record?
A: The activity change, negative = cytotoxicity was 3.94% (inactive).

Q: With `COC(=O)[C@H]1[C@H](CO)[C@H]2Cn3c(ccc(-c4ccccc4F)c3=O)[C@@H]1N2CC1CCCC1` as the compound, how does the activity change, negative = cytotoxicity read?
A: The activity change, negative = cytotoxicity was 4.06% (inactive).

Q: With `COC(=O)C[C@H]1CC[C@H]2[C@H](COc3ccc(NC(=O)Nc4cccc(Cl)c4)cc3C(=O)N2C)O1` as the compound, how does the activity change, negative = cytotoxicity read?
A: The activity change, negative = cytotoxicity was -2.79% (inactive).

Q: For `COc1ccc(S(=O)(=O)N=Nc2c(O)[nH]c3ccccc23)cc1`, which activity change, negative = cytotoxicity is on record?
A: The activity change, negative = cytotoxicity was 5.63% (inactive).

Q: With `O=C(CN1C(=O)c2ccccc2S1(=O)=O)c1ccc(F)cc1` as the compound, how does the activity change, negative = cytotoxicity read?
A: The activity change, negative = cytotoxicity was 12.8% (inactive).

Q: With `CCc1c(C(=O)NN2C(=O)C3CCCCC3C2=O)csc1C` (stereo unspecified) as the compound, how does the activity change, negative = cytotoxicity read?
A: Its activity change, negative = cytotoxicity is 23.1% (inactive).

Q: For `Cc1c(N=Cc2cc(Br)cc(Br)c2O)cccc1C(=O)O`, which activity change, negative = cytotoxicity is on record?
A: The activity change, negative = cytotoxicity was 25.2% (inactive).

Q: With `COc1ccc(N=C(NN)c2ccc3ccccc3n2)cc1` as the compound, how does the activity change, negative = cytotoxicity read?
A: Its activity change, negative = cytotoxicity is 4.27% (inactive).

Q: For `CC(C)CC(NC(=O)c1cccs1)c1nnc(SCc2ccc(Cl)c(Cl)c2)n1C` (stereo unspecified), which activity change, negative = cytotoxicity is on record?
A: Its activity change, negative = cytotoxicity is -10% (inactive).

Q: With `CCOc1ccc(-c2cc(CCCC(=O)N3CCN(c4ccc(OC)cc4)CC3)no2)cc1` as the compound, how does the activity change, negative = cytotoxicity read?
A: Its activity change, negative = cytotoxicity is -1.53% (inactive).

Q: With `O=C(Nc1ccc(OC(=O)N2CCCCC2)cc1)N1CCOCC1` as the compound, how does the activity change, negative = cytotoxicity read?
A: The activity change, negative = cytotoxicity was 2.31% (inactive).

Q: Which activity change, negative = cytotoxicity does the source give for `CC(=O)c1ccc(N=C2C(=O)Nc3ccccc32)cc1` here?
A: The activity change, negative = cytotoxicity was -7.15% (inactive).

Q: With `Nc1ccc(-c2cc3ccccc3oc2=O)cc1` as the compound, how does the activity change, negative = cytotoxicity read?
A: The activity change, negative = cytotoxicity was -3.32% (inactive).

Q: With `COc1ccccc1CNC(=O)C[C@@H]1CC[C@H]2[C@@H](COC[C@H](O)CN2C(=O)Nc2ccc(C(F)(F)F)cc2)O1` as the compound, how does the activity change, negative = cytotoxicity read?
A: Its activity change, negative = cytotoxicity is -18.3% (inactive).

Q: For `CN(C)c1ccc(N=Nc2ccccc2Br)cc1`, which activity change, negative = cytotoxicity is on record?
A: The activity change, negative = cytotoxicity was -15.6% (inactive).

Q: With `Cc1nc2cc(-c3ccc(Cl)cc3)nn2c(C)c1CCC(=O)NC(C)c1ccc2c(c1)OCCO2` (stereo unspecified) as the compound, how does the activity change, negative = cytotoxicity read?
A: Its activity change, negative = cytotoxicity is 14.2% (inactive).

Q: With `Cc1c(Cl)cnc(NC(=O)COC(=O)c2ccc3ncsc3c2)c1Cl` as the compound, how does the activity change, negative = cytotoxicity read?
A: The activity change, negative = cytotoxicity was 5.39% (inactive).

Q: With `C=C1C(=O)C=C[C@]2(C)C[C@@H]3OC(=O)[C@](C)(O)[C@H]3C[C@@H]12` as the compound, how does the activity change, negative = cytotoxicity read?
A: The activity change, negative = cytotoxicity was -94.2% (inactive).

Q: Which activity change, negative = cytotoxicity does the source give for `Cc1ccc(Cc2c(-c3ccco3)nc3c(C)cc(Br)cn23)cc1` here?
A: The activity change, negative = cytotoxicity was -21.5% (inactive).

Q: Which activity change, negative = cytotoxicity does the source give for `CC1(CCc2ccccc2)NC(=O)N(CC(=O)N2CC(=O)Nc3ccccc32)C1=O` (stereo unspecified) here?
A: The activity change, negative = cytotoxicity was 3.37% (inactive).

Q: With `CC(C)(C)c1ccc(/C=N/Nc2ccc(C(=O)O)cc2)cc1` as the compound, how does the activity change, negative = cytotoxicity read?
A: Its activity change, negative = cytotoxicity is 1.96% (inactive).

Q: For `Cc1ccccc1N=CC1=C(O)c2ccccc2C1=O`, which activity change, negative = cytotoxicity is on record?
A: Its activity change, negative = cytotoxicity is 20.2% (inactive).

Q: With `CCCCN=C(NNc1ccc(Br)cc1)C(=O)OCC` as the compound, how does the activity change, negative = cytotoxicity read?
A: Its activity change, negative = cytotoxicity is 4.46% (inactive).

Q: With `CC(C)c1oc(=O)cc2c1[C@@H](O)[C@H]1OC(=O)[C@@]3(C)CC[C@@H](O)[C@@]2(C)C13` (stereo partly specified) as the compound, how does the activity change, negative = cytotoxicity read?
A: Its activity change, negative = cytotoxicity is -18.6% (inactive).

Q: Which activity change, negative = cytotoxicity does the source give for `COc1ccc(C=NNc2nc3ccccc3s2)cc1` here?
A: The activity change, negative = cytotoxicity was -1.49% (inactive).

Q: Which activity change, negative = cytotoxicity does the source give for `COCCOC(=O)N1C(=O)[C@@]2(c3cc(C#CCC(C(=O)OC)C(=O)OC)ccc31)[C@H](c1ccccc1OCCO)N1[C@H](c3ccccc3)[C@H](c3ccccc3)OC(=O)[C@H]1[C@@H]2C(=O)N1CCN(c2ncccn2)CC1` here?
A: Its activity change, negative = cytotoxicity is 16.1% (inactive).

Q: With `CCn1c(C)cc(C(=O)CN2C(=O)c3ccccc3S2(=O)=O)c1C` as the compound, how does the activity change, negative = cytotoxicity read?
A: Its activity change, negative = cytotoxicity is 9.04% (inactive).

Q: For `COc1ccc2oc(C(=O)NCCc3ccccc3)c(C)c2c1`, which activity change, negative = cytotoxicity is on record?
A: The activity change, negative = cytotoxicity was 3.92% (inactive).

Q: With `COCc1cc(C)nc2sc(C(=O)NCCO)c(-n3cccc3)c12` as the compound, how does the activity change, negative = cytotoxicity read?
A: Its activity change, negative = cytotoxicity is 3.9% (inactive).

Q: Which activity change, negative = cytotoxicity does the source give for `CCc1ccc(/C=C2\SC(=S)N(CCCC(=O)Nc3cc(C)on3)C2=O)cc1` here?
A: Its activity change, negative = cytotoxicity is 20.2% (inactive).

Q: Which activity change, negative = cytotoxicity does the source give for `Cc1ccsc1C(=O)OCC(=O)c1cc(C)n(C)c1C` here?
A: Its activity change, negative = cytotoxicity is 15.6% (inactive).

Q: Which activity change, negative = cytotoxicity does the source give for `O=C1CCC2S/C(=C/Nc3ccc(C(F)(F)F)cc3)C(=O)N12` (stereo unspecified) here?
A: The activity change, negative = cytotoxicity was 11.9% (inactive).

Q: Which activity change, negative = cytotoxicity does the source give for `O=C(CN1C(=O)C(=O)c2ccccc21)c1ccc(Cl)cc1` here?
A: The activity change, negative = cytotoxicity was -1.64% (inactive).

Q: For `COC(=O)Cc1[nH]n(-c2nc3ccccc3s2)c(=O)c1C(C)=Nc1ccc(C)cc1`, which activity change, negative = cytotoxicity is on record?
A: Its activity change, negative = cytotoxicity is -7.01% (inactive).

Q: With `O=c1c2ccccc2oc2ccc(C#CC3(O)CCCCC3)cc12` as the compound, how does the activity change, negative = cytotoxicity read?
A: The activity change, negative = cytotoxicity was -10.3% (inactive).

Q: Which activity change, negative = cytotoxicity does the source give for `COC(=O)C[C@@H]1CC[C@@H]2[C@H](COc3ccc(NC(=O)c4ccc(F)cc4)cc3C(=O)N2C)O1` here?
A: Its activity change, negative = cytotoxicity is 15.1% (inactive).

Q: Which activity change, negative = cytotoxicity does the source give for `COc1ccc(/C=N/Nc2ccc(C(=O)O)cc2)cc1Br` here?
A: Its activity change, negative = cytotoxicity is -12.7% (inactive).
